The text below walks through data of patent US8008433B2, “Methods for preventing or treating bone disorders” (Metabolic Pharmaceutical Limited, priority 2004, dated 2011).

Where a SMILES comes first, the peptide text is derived from it. Bridges are numbered along the chain shown (N, C = ends).

The test system of data set [1] is C57B1/6J (Ob/Ob) mouse. To be noted: from AU 693478; cited from earlier work.
Data set [2] deals with aged rat model for post-menopausal osteoporosis. As to the kind of experiment: Vertebral compression of L5 (trabecular bone). It is filed as in vivo, Sprague-Dawley rats (Rattus Norvegicus). The settings on record: slow release pellet 0.01 mg/day, 12 weeks. On the procedure:
Ninety-six aged Sprague-Dawley rats were randomly assigned to one of eight groups. The first two groups were sham operated. Group 1 was kept as a Sham control and Group 2 was treated with 2.5 mg/kg/day of recombinant human GH (rhGH) (BresaGen). The remaining six groups arrived from Harlan, ovariectomized (OVX). This surgery was performed approximately 8 days before the commencement of treatment. Group 3 was left as a control for the OVX model. Group 4 was given a treatment of 2.5 mg/kg/day of rhGH. Group 5 was treated with a low dose of AOD peptide (LAOD) 0.75 mg/kg/day and Group 6 was treated with a high dose of AOD peptide (HAOD) 2.0 mg/kg/day. […]
Statistical analysis was performed using statistical software, SPSS (version 11.0). Comparisons involving two groups were analyzed by independent student's t-test. Multiple comparisons were analyzed by one-way ANOVA analysis using the pairwise comparison Protected Fisher's Least Significant Difference (LSD) post hoc test. […]
Digital images were taken and image analysis software (ImageJ 1.28u, NIH) was used to determine the height and cross-sectional area of the vertebral body. […] While preloading the samples, the distance between the platens was measured using digital calipers. The gauge length was then determined by subtracting the height of the jig with the distance between the platens. […]

Usually solubility stands for the concentration that dissolves in the medium under given conditions. Low readings indicate a poorly soluble substance, high ones a readily soluble substance. For `CC[C@H](C)[C@H](NC(=O)[C@H](CCCNC(=N)N)NC(=O)[C@H](CC(C)C)NC(=O)[C@@H](N)Cc1ccc(O)cc1)C(=O)N[C@H](C(=O)N[C@@H](CCC(N)=O)C(=O)N[C@H]1CSSC[C@@H](C(=O)NCC(=O)N[C@@H](Cc2ccccc2)C(=O)O)NC(=O)[C@H](CO)NC(=O)CNC(=O)[C@H](CCC(=O)O)NC(=O)[C@H](C(C)C)NC(=O)[C@H](CO)NC(=O)[C@H](CCCNC(=N)N)NC1=O)C(C)C` [AOD, Tyr Leu Arg Ile Val Gln Cys Arg Ser Val Glu Gly Ser Cys Gly Phe] (H-YLRIVQCRSVEGSCGF-OH; disulfide 7-14; N-terminus and C-terminus assumed), the solubility was above 1000 µg/mL.

Take “hGH 177-191: synthetic peptide corresponding to amino acid residues 177-191 of the human growth hormone sequence (LRIVQCRSVEGSCGF; UniProt P01241 203-217, looked up, fragment)”: in data set [1], the adipose tissue mass entry is on record as “reduce” and the body weight gain entry is “reduce”.

With 17B-estradiol [Estrogen], in data set [2], the “strength and stiffness (vertebral compression L5), decrease caused by OVX” value is “did not prevent a decrease”; the “stress and elastic modulus values (vertebral compression L5) compared to OVX” value is “higher”.
